Source: PMC9501014, “Amaryllidaceae-Type Alkaloids from Pancratium maritimum: Apoptosis-Inducing Effect and Cell Cycle Arrest on Triple-Negative Breast Cancer Cells” (Molecules, 2022)

Key:
[1] = system: MDA-MB-231 cells; assay: Cell cycle analysis by flow cytometry (PI); type: cell-based, human; details: 16 µM (2 × IC50), vs vehicle control; 24 h / 48 h
Experimental: To explore the ability of compound 7 to regulate cell cycle progression, the percentage of cells in different phases was analyzed after 24 h of exposure.
(§1) Figure 2 Compound 7 induced cell cycle arrest, apoptosis, and ROS production, in MDA-MB-231 cells. […] (B) Effect of 16 µM of compound 7 on cell cycle progression after 48 h of treatment in MDA-MB-231 cells; the percentage of cells in each phase of the cell cycle was analyzed by flow cytometry, using PI; data are mean ± SEM of three independent experiments. […] (C) Effect of 16 µM of compound 7 on apoptosis after 48 h of treatment; the percentage of Annexin-positive cells was analyzed by flow cytometry using PI and Annexin-V staining; data are mean ± SEM of three independent experiments. […] (F) The graph represents the quantification of protein expression levels relative to DMSO; data are mean ± SD of three independent experiments. The ability of compound 7 to induce apoptosis in this cell line was also assessed by cytometry, using the Annexin V-FITC assay after 48 h of treatment. […]
The analyses were performed basically as described in [33]. […] The cells were then analyzed by flow cytometry, and cell cycle phases were identified and quantified using the FlowJo × 10.0.7 Software (Treestar, Ashland, OR, USA). […]

[2] = system: MDA-MB-231 cells; assay: Mitochondrial ROS generation (MitoSOX); type: cell-based, human; details: 16 µM, 24 h
Experimental: as §1
For mitochondrial ROS generation assessment, MDA-MB-231 cells were seeded in 6-well plates at a density of 1.5 × 10^5 cells/well for 24 h, followed by treatment with 16 µM of compound 7 for an additional 24 h. Thereafter, cells were incubated with 3 μM MitoSOX (Thermo Fisher Scientific, Invitrogen, Portugal) for 30 min at 37 °C and analyzed by flow cytometry.

[3] = system: Bax, Bcl-xL, p21, p53 protein expression in MDA-MB-231 cells; assay: Western blot analysis of protein expression levels; type: cell-based, human; details: 16 µM, 48 h
Experimental: Once compound 7 induced cancer cell death by apoptosis, we next explored the molecular pathways involved in its apoptotic effect. For that, some apoptotic-related proteins were checked in MDA-MB-231 cells treated with 16 µM of compound 7 for 48 h (Figure 2E,F).
MDA-MB-231 cells were seeded in 6-well plates at a density of 1.5 × 10^5 cells/well for 24 h, followed by treatment with 16 µM of compound 7. Protein extracts were quantified using the Bradford reagent (Sigma-Aldrich). Proteins were run in SDS-PAGE and transferred to a Whatman nitrocellulose membrane from Protan (VWR, Carnaxide, Portugal). After blocking, proteins were identified using specific primary antibodies: rabbit polyclonal anti-p21 (Santa Cruz Biotechnology, Dallas, […], USA), rabbit polyclonal anti-Bax, and rabbit monoclonal anti-Bcl-xL (Invitrogen, Waltham, MA, USA), followed by the respective anti-mouse/anti-rabbit HRP-conjugated secondary antibodies (Santa Cruz Biotechnology). GAPDH was used as a loading control. The signal was detected with the ECL Amersham kit from GE Healthcare (VWR, Carnaxide, Portugal). Two detection methods were used: the Kodak GBX developer and fixer (Sigma-Aldrich) or the ChemiDoc™ XRS Imaging System from Bio-Rad Laboratories (Amadora, Portugal).

[4] = system: breast cancer cell lines (MDA-MB-231, MDA-MB-468, MCF-7); assay: Sulforhodamine B assay, all breast cancer cell lines; type: cell-based; details: Homo sapiens; range over the four alkaloids and MDA-MB-231, MDA-MB-468, MCF-7; read-out: IC50 values against all breast cancer cell lines
Experimental: Aiming to find Amaryllidaceae alkaloids against breast cancer, including the highly aggressive triple-negative breast cancer, the phytochemical study of Pancratium maritimum was carried out. Several Amaryllidaceae-type alkaloids, bearing scaffolds of the haemanthamine-, homolycorine-, lycorine-, galanthamine-, and tazettine-type were isolated (3–11), along with one alkamide (2) and a phenolic compound (1). The antiproliferative effect of compounds (1–11) was evaluated by the sulforhodamine B assay against triple-negative breast cancer cell lines MDA-MB-231 and MDA-MB-468, breast cancer cells MCF-7, and the non-malignant fibroblast (HFF-1) and breast (MCF12A) cell lines. […] The homolycorine-type alkaloid 7 was selected for further investigation in MDA-MB-231 cells. In the annexin-V assay, compound 7 increased cell death by apoptosis, which was substantiated, in western blot analyses, by the increased expression of the pro-apoptotic protein Bax, and the decreased expression of the anti-apoptotic protein Bcl-xL. Consistently, it further stimulated mitochondrial reactive oxygen species (ROS) generation. The antiproliferative effect of compound 7 was also associated with G2/M cell cycle arrest, which was supported by an increase in the p21 protein expression levels.
Human cell lines were seeded in 96-well plates at a density of 5.0 × 10^3 (MDA-MB-231, MCF-7, HFF-1, and MCF12A) and 7.5 × 10^3 (MDA-MB-468) cells/well and allowed to adhere for 24 h. Cells were treated with serial dilutions of compounds (ranging from 0.1 to 40 μM) for an additional 48 h. Effect on cell proliferation was measured by sulforhodamine B assay, as described in [33], and the half-maximal inhibitory concentration (IC50) was then determined for each cell line using the GraphPad Prism software version 7.0 (La Jolla, CA, USA).

`COc1cc2c(cc1O)C(=O)OC1[C@@H](O)C=C3CCN(C)C3[C@]21O` (stereo partly drawn) [Compound 7, 2α-10bα-dihydroxy-9-O-demethylhomolycorine] was tested, and the cell cycle progression [1] was “significant accumulation of cells in the G2/M phase”, the “mitochondrial ROS production” value [2] was “increased ROS production” and the Bax protein levels ([3]; MDA-MB-231) was “increased levels”. For the same molecule, the Bcl-xL protein levels ([3]; MDA-MB-231) was “reduced levels”, the p21 protein levels ([3]; MDA-MB-231) was “increased the p21 protein levels” and the “p53 protein expression levels” value ([3]; MDA-MB-231, data not shown) was “did not interfere”. For the same molecule, the IC50 [4] was 0.73 to 16.3 µM.
